Data reported in ChEMBL document CHEMBL1201862, “PubChem BioAssay data set” (2004).
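Protocol summary: plate cells (96-well), add compound at 5 concentrations, incubate 48 h, interpolate endpoints linearly. GI50 is the concentration that inhibits growth by half.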 Calls of active or inactive are those of the source. No stated cut-off is given here; in the data, active = GI50 up to about 1.1 µM and inactive = higher.

Key:
Assay in all cases: NCI anticancer screen, dose series, 48 h
HCT-116 = system: HCT-116
UO-31 = system: UO-31
NCI/ADR-RES = system: NCI/ADR-RES
U-251 = system: U-251
SR = system: SR
A549 = system: A549
HOP-92 = system: HOP-92
LOX IMVI = system: LOX IMVI
A498 = system: A498
RPMI-8226 = system: RPMI-8226
SF-295 = system: SF-295
MDA-MB-435 = system: MDA-MB-435
NCI-H522 = system: NCI-H522
OVCAR-8 = system: OVCAR-8
HL-60 = system: HL-60
OVCAR-3 = system: OVCAR-3
MOLT-4 = system: MOLT-4
COLO 205 = system: COLO 205
HT-29 = system: HT-29
HCC 2998 = system: HCC 2998

SMILES	GI50 (HCT-116)	GI50 (UO-31)	GI50 (NCI/ADR-RES)	GI50 (U-251)	GI50 (SR)	GI50 (A549)	GI50 (HOP-92)	GI50 (LOX IMVI)	GI50 (A498)	GI50 (RPMI-8226)	GI50 (SF-295)	GI50 (MDA-MB-435)	GI50 (NCI-H522)	GI50 (OVCAR-8)	GI50 (HL-60)	GI50 (OVCAR-3)	GI50 (MOLT-4)	GI50 (COLO 205)	GI50 (HT-29)	GI50 (HCC 2998)
O=c1n(CCCN2CCOCC2)nc2n1-c1ccc3ccccc3c1SC2	40.8 µM (inactive)	20.6 µM (inactive)	67.5 µM (inactive)	57.9 µM (inactive)	71.6 µM (inactive)	50 µM (inactive)	> 100 µM (inactive)	26.9 µM (inactive)	89.9 µM (inactive)	45.2 µM (inactive)	19.9 µM (inactive)	49 µM (inactive)	22.3 µM (inactive)	64.9 µM (inactive)	31.1 µM (inactive)	95.7 µM (inactive)	39.3 µM (inactive)	1.43 µM (inactive)	19 µM (inactive)	–
CCOC(=O)C1=c2[nH]c3cccc4cccc(c43)n2C(=O)CC1c1ccccc1 (configuration not stated)	> 100 µM (inactive)	> 100 µM (inactive)	> 100 µM (inactive)	> 100 µM (inactive)	> 100 µM (inactive)	> 100 µM (inactive)	> 100 µM (inactive)	> 100 µM (inactive)	> 100 µM (inactive)	> 100 µM (inactive)	> 100 µM (inactive)	> 100 µM (inactive)	> 100 µM (inactive)	> 100 µM (inactive)	95.5 µM (inactive)	–	> 100 µM (inactive)	> 100 µM (inactive)	> 100 µM (inactive)	> 100 µM (inactive)
COc1ccc(C[n+]2cccc(O)c2)cc1	> 100 µM (inactive)	> 100 µM (inactive)	> 100 µM (inactive)	> 100 µM (inactive)	> 100 µM (inactive)	> 100 µM (inactive)	> 100 µM (inactive)	–	> 100 µM (inactive)	–	> 100 µM (inactive)	> 100 µM (inactive)	–	> 100 µM (inactive)	> 100 µM (inactive)	> 100 µM (inactive)	> 100 µM (inactive)	–	> 100 µM (inactive)	> 100 µM (inactive)
CN(/N=C(\C(=O)O)c1ccccc1)C1=NCCN1	> 100 µM (inactive)	> 100 µM (inactive)	> 100 µM (inactive)	–	> 100 µM (inactive)	> 100 µM (inactive)	> 100 µM (inactive)	> 100 µM (inactive)	> 100 µM (inactive)	> 100 µM (inactive)	> 100 µM (inactive)	> 100 µM (inactive)	> 100 µM (inactive)	> 100 µM (inactive)	> 100 µM (inactive)	> 100 µM (inactive)	> 100 µM (inactive)	> 100 µM (inactive)	> 100 µM (inactive)	> 100 µM (inactive)
O=C(CC(=O)Nc1ccccc1)NNC(Sc1ccccc1)c1cc(/N=N/c2ccc(Br)cc2)ccc1O (configuration not stated)	0.448 µM (active)	2.29 µM (inactive)	1.26 µM (inactive)	6.31 µM (inactive)	0.353 µM (active)	3.85 µM (inactive)	4.51 µM (inactive)	2.49 µM (inactive)	1.91 µM (inactive)	4.2 µM (inactive)	3.85 µM (inactive)	4.28 µM (inactive)	4.81 µM (inactive)	–	0.356 µM (active)	0.394 µM (active)	0.0916 µM (active)	3.2 µM (inactive)	8.13 µM (inactive)	> 10 µM (inactive)
Cc1cc(C)nc(NS(=O)(=O)c2ccc(NC(=O)c3cc([N+](=O)[O-])cc([N+](=O)[O-])c3)cc2)n1	> 100 µM (inactive)	> 100 µM (inactive)	> 100 µM (inactive)	84.3 µM (inactive)	0.0755 µM (active)	> 100 µM (inactive)	42.5 µM (inactive)	26.8 µM (inactive)	> 100 µM (inactive)	57.5 µM (inactive)	–	> 100 µM (inactive)	–	> 100 µM (inactive)	30.1 µM (inactive)	30.5 µM (inactive)	1.79 µM (inactive)	18.3 µM (inactive)	31.4 µM (inactive)	–
O=C1/C(=C\c2ccccc2)C(NC2CCCCC2)c2ccccc21 (configuration not stated)	0.959 µM (active)	1.1 µM (active)	3.65 µM (inactive)	1.73 µM (inactive)	0.206 µM (active)	4.05 µM (inactive)	1.96 µM (inactive)	1.66 µM (inactive)	18.6 µM (inactive)	0.387 µM (active)	18.8 µM (inactive)	1.52 µM (inactive)	0.578 µM (active)	2.12 µM (inactive)	0.883 µM (active)	1.24 µM (inactive)	0.817 µM (active)	1.55 µM (inactive)	1.42 µM (inactive)	–
COc1c(O)cc2c(c1O)C(=O)C(Cc1ccc(O)cc1)CO2 (configuration not stated)	99.1 µM (inactive)	> 100 µM (inactive)	32.7 µM (inactive)	> 100 µM (inactive)	24.9 µM (inactive)	> 100 µM (inactive)	68.2 µM (inactive)	> 100 µM (inactive)	> 100 µM (inactive)	25.7 µM (inactive)	65.8 µM (inactive)	28 µM (inactive)	80.7 µM (inactive)	63.1 µM (inactive)	28.1 µM (inactive)	93.1 µM (inactive)	44.5 µM (inactive)	> 100 µM (inactive)	> 100 µM (inactive)	–
CNC/C(Cl)=N/S(=O)(=O)c1ccc(C)cc1	8.09 µM (inactive)	12.1 µM (inactive)	26.1 µM (inactive)	6.93 µM (inactive)	3.84 µM (inactive)	13.2 µM (inactive)	14.8 µM (inactive)	7.16 µM (inactive)	20 µM (inactive)	6.61 µM (inactive)	14.7 µM (inactive)	6.15 µM (inactive)	6.58 µM (inactive)	18.9 µM (inactive)	–	12.4 µM (inactive)	–	17.5 µM (inactive)	19.2 µM (inactive)	4.74 µM (inactive)
COc1ccc(S(=O)(=O)Nc2ccc(-c3csc(N4C(=O)/C(=C/c5ccccc5)N=C4c4ccccc4)n3)cc2)cc1Cl	35.3 µM (inactive)	5.62 µM (inactive)	45.4 µM (inactive)	23.7 µM (inactive)	28.1 µM (inactive)	35.1 µM (inactive)	24.4 µM (inactive)	32.5 µM (inactive)	11.3 µM (inactive)	–	41.7 µM (inactive)	27.5 µM (inactive)	39 µM (inactive)	31.5 µM (inactive)	24.6 µM (inactive)	36.2 µM (inactive)	25.1 µM (inactive)	34.5 µM (inactive)	> 100 µM (inactive)	–
CNC(=O)c1nn[nH]c1O	> 100 µM (inactive)	> 100 µM (inactive)	> 100 µM (inactive)	> 100 µM (inactive)	> 100 µM (inactive)	> 100 µM (inactive)	> 100 µM (inactive)	> 100 µM (inactive)	> 100 µM (inactive)	> 100 µM (inactive)	> 100 µM (inactive)	> 100 µM (inactive)	> 100 µM (inactive)	> 100 µM (inactive)	> 100 µM (inactive)	–	> 100 µM (inactive)	> 100 µM (inactive)	> 100 µM (inactive)	> 100 µM (inactive)
O=c1c(=O)c2cscc2c1=O	4.9 µM (inactive)	4.75 µM (inactive)	8 µM (inactive)	4.75 µM (inactive)	0.137 µM (active)	8.99 µM (inactive)	5.47 µM (inactive)	4.92 µM (inactive)	> 25 µM (inactive)	6.47 µM (inactive)	> 25 µM (inactive)	4.65 µM (inactive)	0.486 µM (active)	6.55 µM (inactive)	–	5.62 µM (inactive)	4.58 µM (inactive)	4.73 µM (inactive)	4.93 µM (inactive)	2.92 µM (inactive)
CC1=CC2=C(C(N)=O)C(=O)OC2(C)C(c2ccccc2)C1 (configuration not stated)	> 100 µM (inactive)	> 100 µM (inactive)	> 100 µM (inactive)	> 100 µM (inactive)	> 100 µM (inactive)	> 100 µM (inactive)	> 100 µM (inactive)	> 100 µM (inactive)	> 100 µM (inactive)	> 100 µM (inactive)	> 100 µM (inactive)	> 100 µM (inactive)	> 100 µM (inactive)	> 100 µM (inactive)	> 100 µM (inactive)	> 100 µM (inactive)	> 100 µM (inactive)	–	> 100 µM (inactive)	–
COc1ccc(C(CC(=O)C(C)(C)CN2CCCCC2)SCCS(=O)(=O)O)cc1 (configuration not stated)	29 µM (inactive)	37.4 µM (inactive)	35.4 µM (inactive)	62.1 µM (inactive)	14.3 µM (inactive)	41.4 µM (inactive)	17.8 µM (inactive)	–	26.2 µM (inactive)	24.9 µM (inactive)	13.9 µM (inactive)	18.3 µM (inactive)	21.5 µM (inactive)	33.3 µM (inactive)	41.4 µM (inactive)	12.8 µM (inactive)	22.1 µM (inactive)	28.4 µM (inactive)	26.2 µM (inactive)	67.3 µM (inactive)
O=[N+]([O-])c1ccc(NN/N=N/c2ccc(-c3nc4ccccc4[nH]3)cc2)c([N+](=O)[O-])c1	26.7 µM (inactive)	84.1 µM (inactive)	45.7 µM (inactive)	53.7 µM (inactive)	2.74 µM (inactive)	58.3 µM (inactive)	43.8 µM (inactive)	7.48 µM (inactive)	25.6 µM (inactive)	–	4.2 µM (inactive)	54 µM (inactive)	17.9 µM (inactive)	22.5 µM (inactive)	13.8 µM (inactive)	28.4 µM (inactive)	5.14 µM (inactive)	27.7 µM (inactive)	36.5 µM (inactive)	31 µM (inactive)
